# Laboratory results published in paper PMC5426640, “A novel multifunctional peptide oligomer of bacitracin with possible bioindustrial and therapeutic applications from a Korean food-source Bacillus strain” (PLoS ONE, 2017).
# Where a SMILES comes first, the peptide text is derived from it. Bridges are numbered along the chain shown (N, C = ends). [ ]: non-standard residue; d: D form. The star is where a group is joined. Ileψ(thiazoline)Cys = CC[C@H](C)[C@H](N)C1=N[C@H](C(=O)*)CS1; dOrn = NCCC[C@@H](N)C(=O)O
# Tests used:
# Assay type in all cases: cell-based, mouse
# [1] = tested on: p38 MAPK; assay: Western blot of LPS-induced MAPK phosphorylation in RAW 264.7 cells; settings: 10–100 μg/mL, LPS 1 μg/mL
# Description: (§1) Macrophages were incubated with or without LPS in the presence or absence of the AMPs. Cells were harvested, washed twice with ice-cold Tris-HCl-buffered saline (TBS), and resuspended in lysis buffer [100 mM Tris-HCl, 5 mM EDTA, 50 mM NaCl, 50 mM β- glycerophosphate, 50 mM NaF (sodium fluoride), 0.5% NP-40, 1% sodium deoxycholate, 0.1 mM sodium orthovanadate, and 1% phenylmethylsulfonyl fluoride (PMSF)]. The cytosolic fraction was obtained from the supernatant after […] centrifugation at 4°C for 20 min. Samples (20 μg in terms of protein) were separated by sodium dodecyl sulfate-polyacrylamide gel electrophoresis (SDS-PAGE) in a 10% gel and transferred to polyvinylidene difluoride (PVDF) membranes. The membranes were blocked with 5% nonfat milk in TBS with Tween 20 (0.1%) for 2 h and then incubated with primary antibodies specific for ERK, phospho-ERK, JNK, phospho-JNK, p38 MAPK, phospho-p38 MAPK (all them from Cell Signaling Technology), NF-κB, IκB, and phospho-IκB (1:1000; Santa Cruz Biotechnology). […] After three washes with TBS–Tween 20, the membrane was hybridized with an HRP-conjugated secondary antibody for 1 h. The membranes were washed three times for 10 min and developed with the ECL Western Blotting Detection System (GE Healthcare, Incheon, Republic of Korea,). The immunoreactive proteins were detected by means of a LAS-3000 Luminescent image analyzer (Fuji Photo Film Co., Ltd., Tokyo, Japan).
# [2] = tested on: ERK; assay: as above; settings: 10–100 μg/mL, LPS 1 μg/mL
# Description: as §1
# [3] = tested on: COX-2; assay: Western blot of protein expression in LPS-stimulated RAW 264.7 cells; settings: 10, 50, or 100 μg/mL, LPS 1 μg/mL, 24 h
# Description: as §1, with “The membranes were washed three times for 10 min and developed with the ECL Western Blotting Detection System (GE Healthcare, Incheon, Republic of Korea,).” left out
# [4] = tested on: iNOS; assay: as above; settings: 10, 50, or 100 μg/mL, LPS 1 μg/mL, 24 h
# Description: as §1, with “The membranes were washed three times for 10 min and developed with the ECL Western Blotting Detection System (GE Healthcare, Incheon, Republic of Korea,).” left out
structure (smiles),measurement,setting,value
CC[C@H](C)[C@H](N)C1=N[C@H](C(=O)N[C@@H](CC(C)C)C(=O)N[C@H](CCC(=O)O)C(=O)N[C@H](C(=O)N[C@H]2CCCCNC(=O)[C@H](CC(N)=O)NC(=O)[C@@H](CC(=O)O)NC(=O)[C@H](Cc3c[nH]cn3)NC(=O)[C@@H](Cc3ccccc3)NC(=O)[C@H]([C@@H](C)CC)NC(=O)[C@@H](CCCN)NC2=O)[C@@H](C)CC)CS1 [CSP32] ({Ileψ(thiazoline)Cys}-L[dE]IK[dOrn]I[dF]H[dD]N; lactam 4-C; N-terminus assumed),Effect on LPS-induced phosphorylation of p38 MAPK,[1],Phosphorylation decreased in a dose-dependent manner
same,Effect on LPS-induced phosphorylation of ERK,[2],Phosphorylation decreased in a dose-dependent manner
same,Effect on LPS-induced COX-2 protein expression,[3],significantly attenuated this induction in a dose-dependent manner
same,Effect on LPS-induced iNOS protein expression,[4],significantly attenuated this induction in a dose-dependent manner
